Measured values reported in patent US20250368619A1, “SUBSTITUTED TETRAHYDROCYCLOHEPTA[E]INDOLE DERIVATIVES, PROCESSES FOR THEIR PREPARATION AND THERAPEUTIC USES THEREOF” (SANOFI, priority 2022, published 2025).

The compounds below were run against T1, ERα (Homo sapiens, UniProt P03372) (assay: Estrogen receptor degradation activity: breast cancer cell ERα in cell western assay in MCF7 cells). Conditions: 4 hours, relative to fulvestrant 0.1 μM positive control.
T1 construct: host or cells: MCF7
T1 sequence (P03372 1-595): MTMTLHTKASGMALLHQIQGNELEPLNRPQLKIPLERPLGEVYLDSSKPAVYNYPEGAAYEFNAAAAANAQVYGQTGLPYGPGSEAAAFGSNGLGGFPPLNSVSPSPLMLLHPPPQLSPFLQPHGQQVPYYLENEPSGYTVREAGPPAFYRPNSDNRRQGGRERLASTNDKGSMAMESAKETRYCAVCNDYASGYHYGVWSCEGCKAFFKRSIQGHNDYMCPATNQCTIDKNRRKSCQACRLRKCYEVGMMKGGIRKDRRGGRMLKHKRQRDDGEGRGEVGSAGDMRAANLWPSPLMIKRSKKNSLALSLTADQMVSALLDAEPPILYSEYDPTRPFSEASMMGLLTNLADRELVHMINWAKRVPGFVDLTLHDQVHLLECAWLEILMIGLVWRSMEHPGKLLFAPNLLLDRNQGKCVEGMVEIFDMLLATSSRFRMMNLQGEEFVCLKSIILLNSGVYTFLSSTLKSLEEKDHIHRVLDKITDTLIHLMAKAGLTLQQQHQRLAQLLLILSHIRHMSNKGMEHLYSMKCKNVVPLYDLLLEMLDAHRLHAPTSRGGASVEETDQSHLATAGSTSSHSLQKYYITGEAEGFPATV
Format: cell-based
Procedure: Test: Estrogen receptor degradation activity
Said test involves measuring the in vitro degradation activity of the compounds of the table 1.
The measurements of the degradation activities were made using a breast cancer cell ERα in cell western assay as described hereunder.
MCF7 cells (ATCC) were seeded in 384 wells microplate (collagen coated) at a concentration of 10000 cells/30 μL per well in red phenol free MEM alpha medium (invitrogen) containing 5% charcoal dextran striped FBS. The following day, 9 points serial 1:5 dilution of each compound was added to the cells in 2.5 μL at final concentrations ranging from 0.3-0.0000018 μM (in table 2), or 0.1 μM for fulvestrant (using as positive control). At 4 hours post compound addition the cells were fixed by adding 25 μL of formalin (final concentration 5% formalin containing 0.1% triton) for 10 minutes at RT and then washed twice with PBS. Then, 50 μL of LI-COR blocking buffer containing 0.1% Triton was added to plate for 30 minutes at RT. LI-COR blocking buffer was removed and cells were incubated overnight at cold room with 50 μL anti-ER rabbit monoclonal antibody (Thermo scientific MA1-39540) diluted at 1:1000 in LI-COR blocking buffer containing 0.1% tween-20. Wells which were treated with blocking buffer but no antibody were used as background control. Wells were washed twice with PBS (0.1% tween-20) and incubated at 37° C. for 60 minutes in LI-COR (0.1% tween-20) containing goat anti-rabbit antibody Alexa 488 (1:1000) and Syto-64 a DNA dye (2 μM final concentration). Cells were then washed 3 times in PBS and scanned in ACUMEN explorer (TTP-Labtech). Integrated intensities in the green fluorescence and red fluorescence were measured to determine the levels of ERα and DNA respectively.
The degradation activity with respect to estrogen receptors in this test is given by the concentration which degrades 50% of the estrogen receptor (or IC50) in nM.
The % of ERα levels decrease were determined as follows: % inhibition=100*(1−(sample−fulvestrant:DMSO−fulvestrant)).

In order of rising “% Degradation At 0.3 μM” value:
1. Cc1cc(F)ccc1C1=C(c2ccc(CC3CN(CCCF)C3)cc2)c2ccc3[nH]ccc3c2CCC1 [Compound 1, 7-(4-fluoro-2-methylphenyl)-6-(4-((1-(3-fluoropropyl)azetidin-3-yl)methyl)phenyl)-3,8,9,10-tetrahydrocyclohepta[e]indole]  80%
2. O=C(O)C(F)(F)F.O=C(O)c1ccc(C2=C(c3ccc(CC4CN(CCCF)C4)cc3)c3ccc4[nH]ccc4c3CCC2)cc1 [Compound 23, 4-(6-(4-((1-(3-fluoropropyl)azetidin-3-yl)methyl)phenyl)-3,8,9,10-tetrahydrocyclohepta[e]indol-7-yl)benzoic acid, 2,2,2-trifluoroacetic acid]  80%
3. FCCCN1CC[C@H](Oc2ccc(C3=C(c4ccc(Cl)cc4Cl)CCCc4c3ccc3[nH]ccc43)cc2)C1 [Compound 4, (S)-7-(2,4-dichlorophenyl)-6-(4-((1-(3-fluoropropyl)pyrrolidin-3-yl)oxy)phenyl)-3,8,9,10-tetrahydrocyclohepta[e]indole]  85%
4. Cc1c(Cl)cccc1C1=C(c2ccc(N[C@H]3CCN(CCCF)C3)cc2)c2ccc3[nH]ccc3c2CCC1 [Compound 28, (S)-N-(4-(7-(3-chloro-2-methylphenyl)-3,8,9,10-tetrahydrocyclohepta[e]indol-6-yl)phenyl)-1-(3-fluoropropyl)pyrrolidin-3-amine]  91%
5. FCCCN1CC[C@H](Oc2ccc(C3=C(C4=CCC(F)(F)CC4)CCCc4c3ccc3[nH]ccc43)cc2)C1 [Compound 5, (S)-7-(4,4-difluorocyclohex-1-en-1-yl)-6-(4-((1-(3-fluoropropyl)pyrrolidin-3-yl)oxy)phenyl)-3,8,9,10-tetrahydrocyclohepta[e]indole]  95%
